From PMC11594329, “Development of LAT1-Selective Nuclear Medicine Therapeutics Using Astatine-211” (International Journal of Molecular Sciences, 2024)

Experiments:
[1] = Tissue distribution in ICR mice (normal animals); assay type: in vivo
Excerpt: ICR mice (male, 5 weeks old) were purchased from Japan SLC (Shizuoka, Japan) and acclimated for one week prior to use. The doses in the distribution experiments were as follows: ^211At-AAMT-O-Me-L (0.407 ± 0.005 MBq/mouse, 31.64 ± 0.76 g, n = 6), ^211At-AAMT-O-Me-D (0.351 ± 0.004 MBq/mouse, 31.44 ± 0.94 g, n = 6), ^211At-AAMT-O-Et-L (0.685 ± 0.010 MBq/mouse, 24.14 ± 3.31 g, n = 6), ^211At-AAMT-O-Pr-L (1.09 ± 0.06 MBq/mouse, 26.33 ± 0.39 g, n = 6)

LAT1-Tet/HEK293 cells = assay: Uptake versus LAT1 expression level (Dox-induced) in LAT1-Tet/HEK293 cells; assay type: cell-based; settings: collection 30 min after treatment
Description: Each cell line was seeded in 24 wells at 1 × 10^5 cells/mL and allowed to become sub-confluent on the day of the experiment. Cells were washed with PBS (-) (Fujifilm Wako Pure Chemical, Osaka, Japan) prior to the addition of the compound, which was then replaced with uptake buffer. After treating the cells with the same dose, they were collected at predetermined time points. The cell dose was measured using a γ-counter (Wizard^2 2480; PerkinElmer, Waltham, MA, USA), and the protein content of the sample was determined. Protein content was measured using the BCA method, and the dose was corrected using the protein content (Protein Assay BCA kit, Fujifilm Wako Pure Chemical).
Figure 2 Comparison of uptake between the labeled compounds. (A) Relation between uptake ratio and LAT1 expression level. Uptake ratios were compared between LAT1-Tet/HEK293 cells. The Y-axis represents the uptake ratio, and the X-axis is concentration of Doxycycline (Dox) (TaKaRa Bio, Shiga, Japan). The collection time was 30 min after treatment. The expression of LAT1 increased with increasing amounts of Dox. (B) Comparison of uptake in PANC-1 cell line. The collection times were 0.5, 1, 5 and 10 min after treatment.
The PANC-1 cell line was obtained from the RIKEN Cell Bank and maintained in RPMI 1640 medium (Fujifilm Wako Pure Chemical, Osaka, Japan) supplemented with 10% inactivated fetal bovine serum (Thermo Fisher Scientific, Waltham, MA, USA). Mock/HEK293, LAT1/HEK293, and LAT2/HEK203 cells were kindly provided by Dr. Kanai. Cell lines controlling LAT1 expression were constructed using the Tet-on system. HEK293 cells were obtained from the RIKEN Cell Bank and maintained in E-MEM (Fujifilm Wako Pure Chemical) supplemented with 10% inactivated fetal bovine serum (Thermo Fisher Scientific) and non-essential amino acids (Fujifilm Wako Pure Chemical). The expression vectors were purchased from VectorBuilder, Inc. (Kanagawa, Japan). The purified viral particle genes were transfected into HEK293 cells. Drug selection and cloning of the cell line (Tet-LAT1/HEK293) were performed. […]

PANC-1 tumor model = assay: Tissue distribution in nude mice (PANC-1 tumor model); assay type: in vivo, BALB/c nu/nu mice; settings: nude mice (PANC-1 tumor model)
Description: BALB/c nu/nu mice (male, 5 weeks old) were purchased from Japan SLC (Shizuoka, Japan) and subcutaneously transplanted at a density of 1 × 10^7 cells/mouse. PANC-1 cells that reached the logarithmic growth phase were transplanted subcutaneously by mixing a 1 × 10^8 cells/mL cell suspension with an equivalent volume of Matrigel (Corning, Corning, NY, USA) to obtain 1 × 10^7 cells per mouse. Experiments were performed after the size of the transplanted tumor had exceeded 50 mm^3. The doses in the distribution experiments were as follows: ^211At-AAMT-OH-L (0.501 ± 0.011 MBq/mouse, 19.91 ± 0.59 g, n = 3) and ^211At-AAMT-O-Me-L (0.384 ± 0.003 MBq/mouse, 19.18 ± 0.38 g, n = 6 for Table 3), ^211At-AAMT-O-Me-L (158.10 ± 2.94 kBq/mouse, 19.27 ± 0.64 g, n = 6) and ^211At-AAMT-O-Me-D (135.08 ± 2.35 kBq/mouse, 18.64 ± 0.97 g, n = 6), ^211At-AAMT-O-Et-L (0.682 ± 0.011 MBq/mouse, 20.25 ± 1.41 g, n = 6), ^211At-AAMT-O-Pr-L (0.927 ± 0.020 MBq/mouse, 21.74 ± 0.37 g, n = 6).

CCOc1ccc(C[C@](C)(N)C(=O)O)cc1[211At] [^211At-AAMT-O-Et-L]
Tissue distribution, Bladder ([1]; 1 h after injection): 53.22 ± 43.79 %ID/g
Tissue distribution, Blood ([1]; 1 h after injection): 2.03 ± 0.61 %ID/g
Tissue distribution, Bone ([1]; 1 h after injection): 0.71 ± 0.32 %ID/g
Tissue distribution, Brain ([1]; 1 h after injection): 0.37 ± 0.07 %ID/g
Tissue distribution, Cecum ([1]; 1 h after injection): 0.68 ± 0.25 %ID/g
Tissue distribution, Colon ([1]; 1 h after injection): 8.32 ± 4.87 %ID/g
Tissue distribution, Heart ([1]; 1 h after injection): 6.14 ± 3.75 %ID/g
Tissue distribution, Kidney ([1]; 1 h after injection): 4.70 ± 1.68 %ID/g
Tissue distribution, Liver ([1]; 1 h after injection): 1.41 ± 0.33 %ID/g
Tissue distribution, Lung ([1]; 1 h after injection): 4.47 ± 1.34 %ID/g
Tissue distribution, Pancreas ([1]; 1 h after injection): 7.31 ± 4.45 %ID/g
Tissue distribution, Salivary glands ([1]; 1 h after injection): 7.08 ± 2.00 %ID/g
Tissue distribution, Small intestine ([1]; 1 h after injection): 12.85 ± 7.35 %ID/g
Tissue distribution, Spleen ([1]; 1 h after injection): 2.90 ± 0.95 %ID/g
Tissue distribution, Stomach ([1]; 1 h after injection): 19.50 ± 5.82 %ID/g
Tissue distribution, Testis ([1]; 1 h after injection): 2.36 ± 0.28 %ID/g
Tissue distribution, Thymus ([1]; 1 h after injection): 1.14 ± 0.68 %ID/g
Tissue distribution, Thyroid ([1]; 1 h after injection): 8.98 ± 4.12 %ID/g
Tissue distribution, Bladder ([1]; 3 h after injection): 21.28 ± 15.54 %ID/g
Tissue distribution, Blood ([1]; 3 h after injection): 0.87 ± 0.27 %ID/g
Tissue distribution, Bone ([1]; 3 h after injection): 1.00 ± 0.18 %ID/g
Tissue distribution, Brain ([1]; 3 h after injection): 0.13 ± 0.05 %ID/g
Tissue distribution, Cecum ([1]; 3 h after injection): 1.67 ± 0.24 %ID/g
Tissue distribution, Colon ([1]; 3 h after injection): 1.75 ± 0.49 %ID/g
Tissue distribution, Heart ([1]; 3 h after injection): 1.87 ± 0.80 %ID/g
Tissue distribution, Kidney ([1]; 3 h after injection): 1.56 ± 0.13 %ID/g
Tissue distribution, Liver ([1]; 3 h after injection): 1.06 ± 0.21 %ID/g
Tissue distribution, Lung ([1]; 3 h after injection): 4.93 ± 1.95 %ID/g
Tissue distribution, Pancreas ([1]; 3 h after injection): 1.20 ± 0.40 %ID/g
Tissue distribution, Salivary glands ([1]; 3 h after injection): 15.05 ± 7.81 %ID/g
Tissue distribution, Small intestine ([1]; 3 h after injection): 3.21 ± 0.88 %ID/g
Tissue distribution, Spleen ([1]; 3 h after injection): 2.09 ± 1.08 %ID/g
Tissue distribution, Stomach ([1]; 3 h after injection): 38.74 ± 10.11 %ID/g
Tissue distribution, Testis ([1]; 3 h after injection): 1.20 ± 0.36 %ID/g
Tissue distribution, Thymus ([1]; 3 h after injection): 0.26 ± 0.17 %ID/g
Tissue distribution, Thyroid ([1]; 3 h after injection): 20.22 ± 6.28 %ID/g
Uptake ratio versus LAT1 expression (doxycycline concentration) (LAT1-Tet/HEK293 cells): lower cellular uptake when LAT1 expression increased
Tissue distribution, Bladder (PANC-1 tumor model; 1 h after injection): 15.41 ± 4.39 %ID/g
Tissue distribution, Blood (PANC-1 tumor model; 1 h after injection): 3.63 ± 0.43 %ID/g
Tissue distribution, Bone (PANC-1 tumor model; 1 h after injection): 1.92 ± 0.21 %ID/g
Tissue distribution, Brain (PANC-1 tumor model; 1 h after injection): 0.65 ± 0.11 %ID/g
Tissue distribution, Cecum (PANC-1 tumor model; 1 h after injection): 2.36 ± 0.52 %ID/g
Tissue distribution, Colon (PANC-1 tumor model; 1 h after injection): 3.80 ± 0.50 %ID/g
Tissue distribution, Heart (PANC-1 tumor model; 1 h after injection): 4.41 ± 0.46 %ID/g
Tissue distribution, Kidney (PANC-1 tumor model; 1 h after injection): 6.23 ± 0.94 %ID/g
Tissue distribution, Liver (PANC-1 tumor model; 1 h after injection): 2.54 ± 0.28 %ID/g
Tissue distribution, Lung (PANC-1 tumor model; 1 h after injection): 9.69 ± 1.20 %ID/g
Tissue distribution, Pancreas (PANC-1 tumor model; 1 h after injection): 4.56 ± 0.82 %ID/g
Tissue distribution, Salivary glands (PANC-1 tumor model; 1 h after injection): 13.69 ± 2.13 %ID/g
Tissue distribution, Small intestine (PANC-1 tumor model; 1 h after injection): 4.80 ± 0.63 %ID/g
Tissue distribution, Spleen (PANC-1 tumor model; 1 h after injection): 10.32 ± 4.17 %ID/g
Tissue distribution, Stomach (PANC-1 tumor model; 1 h after injection): 33.25 ± 8.36 %ID/g
Tissue distribution, Testis (PANC-1 tumor model; 1 h after injection): 3.29 ± 0.07 %ID/g
Tissue distribution, Thyroid (PANC-1 tumor model; 1 h after injection): 24.50 ± 4.40 %ID/g
Tissue distribution, Tumor (PANC-1 tumor model; 1 h after injection): 5.64 ± 0.91 %ID/g
Tissue distribution, Bladder (PANC-1 tumor model; 3 h after injection): 12.03 ± 3.42 %ID/g
Tissue distribution, Blood (PANC-1 tumor model; 3 h after injection): 2.23 ± 0.06 %ID/g
Tissue distribution, Bone (PANC-1 tumor model; 3 h after injection): 1.41 ± 0.16 %ID/g
Tissue distribution, Brain (PANC-1 tumor model; 3 h after injection): 0.36 ± 0.10 %ID/g
Tissue distribution, Cecum (PANC-1 tumor model; 3 h after injection): 2.80 ± 0.56 %ID/g
Tissue distribution, Colon (PANC-1 tumor model; 3 h after injection): 3.63 ± 0.34 %ID/g
Tissue distribution, Heart (PANC-1 tumor model; 3 h after injection): 5.15 ± 0.95 %ID/g
Tissue distribution, Kidney (PANC-1 tumor model; 3 h after injection): 3.74 ± 0.78 %ID/g
Tissue distribution, Liver (PANC-1 tumor model; 3 h after injection): 1.93 ± 0.23 %ID/g
Tissue distribution, Lung (PANC-1 tumor model; 3 h after injection): 10.67 ± 1.28 %ID/g
Tissue distribution, Pancreas (PANC-1 tumor model; 3 h after injection): 2.01 ± 0.20 %ID/g
Tissue distribution, Salivary glands (PANC-1 tumor model; 3 h after injection): 19.70 ± 2.93 %ID/g
Tissue distribution, Small intestine (PANC-1 tumor model; 3 h after injection): 3.23 ± 0.22 %ID/g
Tissue distribution, Spleen (PANC-1 tumor model; 3 h after injection): 13.31 ± 2.43 %ID/g
Tissue distribution, Stomach (PANC-1 tumor model; 3 h after injection): 18.47 ± 2.59 %ID/g
Tissue distribution, Testis (PANC-1 tumor model; 3 h after injection): 3.32 ± 0.33 %ID/g
Tissue distribution, Thyroid (PANC-1 tumor model; 3 h after injection): 31.26 ± 11.36 %ID/g
Tissue distribution, Tumor (PANC-1 tumor model; 3 h after injection): 5.24 ± 1.39 %ID/g
